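Briefly, cells in 96-well plates were exposed to five compound concentrations for 48 h, and endpoints were estimated by linear interpolation. The concentration for 50% growth inhibition is given as GI50.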 Calls of active or inactive are those of the source. No stated cut-off is given here; in the data, active = GI50 up to about 1.1 µM and inactive = higher.
How the values were obtained:
Test in all cases: NCI-60 cell line screen, 48 h
[1] = system: NCI-H460
[2] = system: DU-145
[3] = system: MDA-MB-435
[4] = system: SNB-19
[5] = system: SW-620
[6] = system: MDA-MB-231
[7] = system: 786-0
[8] = system: NCI/ADR-RES
[9] = system: A549
[10] = system: UO-31
[11] = system: OVCAR-3
[12] = system: NCI-H226
[13] = system: MOLT-4
[14] = system: KM12
[15] = system: SF-268
[16] = system: T47D
[17] = system: SK-MEL-5
[18] = system: MCF7
[19] = system: NCI-H23
[20] = system: Malme-3M

Measured: GI50

O=C1/C(=C/c2ccc([N+](=O)[O-])cc2)Oc2cc(O)ccc21
inactive: [1] 31.5 µM | [2] 33.7 µM | [3] 30.5 µM | [4] 29.1 µM | [5] 41 µM | [6] 26.5 µM | [7] 22.2 µM | [8] 28.8 µM | [9] 28.8 µM | [10] 17.7 µM | [11] 27.5 µM | [12] 13.2 µM | [13] 14.6 µM | [14] 36.5 µM | [15] 61 µM | [16] 28.6 µM | [17] 21 µM | [18] 27.2 µM | [19] 42.1 µM

CC1(C)O[C@@H](CP(c2ccc3ccccc3c2)c2ccc3ccccc3c2)[C@H](CP(c2ccc3ccccc3c2)c2ccc3ccccc3c2)O1
inactive: [1] > 100 µM | [2] > 100 µM | [3] > 100 µM | [4] > 100 µM | [5] > 100 µM | [6] > 100 µM | [7] > 100 µM | [8] > 100 µM | [9] > 100 µM | [10] > 100 µM | [11] 58.9 µM | [12] 72.6 µM | [13] 78.9 µM | [14] 70.1 µM | [15] > 100 µM | [16] 78.2 µM | [17] 73.5 µM | [18] 72.3 µM | [19] > 100 µM

Cc1cc(S(=O)(=O)[N-]/C(=N/S(=O)(=O)c2cc(Cl)sc2Cl)[n+]2ccc(N(C)C)cc2)c(S)cc1Cl
inactive: [1] 44.3 µM | [2] 39.4 µM | [3] 62.1 µM | [5] 49.9 µM | [6] 77.3 µM | [7] 68.2 µM | [8] > 100 µM | [10] 23.2 µM | [11] 96.6 µM | [12] 39.3 µM | [13] 84.3 µM | [14] > 100 µM | [15] 40.1 µM | [16] > 100 µM | [17] 77.8 µM | [18] 84.7 µM | [19] 34.9 µM

CSc1nn(C)cc2nc(C)nc1-2
inactive: [1] > 100 µM | [2] > 100 µM | [3] > 100 µM | [4] > 100 µM | [5] > 100 µM | [6] > 100 µM | [7] > 100 µM | [8] > 100 µM | [9] > 100 µM | [10] > 100 µM | [11] > 100 µM | [12] > 100 µM | [13] > 100 µM | [14] > 100 µM | [15] > 100 µM | [16] > 100 µM | [17] > 100 µM | [18] > 100 µM | [19] > 100 µM

O=C(O)/C=C/c1ccc(Oc2ccccc2C(=O)O)o1
inactive: [2] > 10 µM | [3] > 10 µM | [4] > 10 µM | [5] > 10 µM | [6] > 10 µM | [20] > 10 µM | [7] > 10 µM | [8] > 10 µM | [9] > 10 µM | [13] > 10 µM | [14] > 10 µM | [15] > 10 µM | [16] > 10 µM | [17] > 10 µM | [18] > 10 µM | [19] > 10 µM

CC(=O)/C(=C/NC(=S)c1cccnc1)C(=O)Nc1ccccc1C
inactive: [1] > 100 µM | [2] > 100 µM | [3] > 100 µM | [4] > 100 µM | [5] > 100 µM | [6] > 100 µM | [7] > 100 µM | [8] 97.5 µM | [9] > 100 µM | [10] > 100 µM | [11] 82.6 µM | [12] > 100 µM | [13] > 100 µM | [14] > 100 µM | [15] > 100 µM | [16] > 100 µM | [17] > 100 µM | [18] > 100 µM | [19] > 100 µM

CCOC(=O)c1cc(C)nc2c1c(=O)n(-c1ccccc1)c(=O)n2CCCCN1CCN(c2ccccc2)CC1
inactive: [2] > 100 µM | [3] > 100 µM | [5] > 100 µM | [6] 48.1 µM | [20] > 100 µM | [7] 73.1 µM | [8] > 100 µM | [9] > 100 µM | [10] 6.17 µM | [12] > 100 µM | [13] 24.5 µM | [14] 61.8 µM | [15] > 100 µM | [16] 24.3 µM | [17] 38.6 µM | [18] 28.3 µM | [19] 77.3 µM

CC(=O)OCC1OC(n2c(C)c(/N=N/c3ccc(Cl)cc3)c(C)c(C#N)c2=S)C(OC(C)=O)C(OC(C)=O)C1OC(C)=O (stereo not drawn)
inactive: [1] > 100 µM | [2] 73.3 µM | [3] > 100 µM | [4] 28.8 µM | [5] > 100 µM | [6] 65.2 µM | [20] > 100 µM | [7] 19.9 µM | [8] > 100 µM | [9] 64.4 µM | [10] > 100 µM | [11] > 100 µM | [13] > 100 µM | [14] > 100 µM | [15] 27.9 µM | [16] > 100 µM | [17] 64.3 µM | [18] > 100 µM | [19] > 100 µM

O=C(O)C[n+]1cn(NC(=O)Cc2ccccc2)cn1
inactive: [1] > 10 µM | [2] > 10 µM | [3] > 10 µM | [4] > 10 µM | [5] > 10 µM | [6] > 10 µM | [20] > 10 µM | [7] > 10 µM | [8] > 10 µM | [9] > 10 µM | [10] > 10 µM | [11] > 10 µM | [13] > 10 µM | [14] > 10 µM | [15] > 10 µM | [16] > 10 µM | [17] > 10 µM | [18] > 10 µM | [19] > 10 µM

C[C@]12CC[C@@H]3c4ccc(OP(=O)(O)O)cc4CC[C@H]3[C@@H]1CCC2=O
inactive: [1] 91.6 µM | [2] > 100 µM | [3] 67.5 µM | [4] > 100 µM | [5] 63.7 µM | [6] 80.7 µM | [20] > 100 µM | [7] > 100 µM | [8] 56 µM | [9] 90.2 µM | [10] 80.7 µM | [11] 62.8 µM | [13] 54 µM | [14] 54.5 µM | [15] > 100 µM | [16] 39.6 µM | [17] 28.4 µM | [18] > 100 µM | [19] 63.1 µM
